Results: patent publication US20230382868A1 (priority 2022, published 2023)
Read-outs that look alike come from different tables or passages of the source.

What was measured:
hBChE = hBChE (Homo sapiens, UniProt P06276); assay: biochemical; assay type: biochemical
hAChE = hAChE (Homo sapiens, UniProt P22303); assay: Inhibition of cholinesterases (Ellman method); assay type: biochemical; details: n.a. = not active (residual activity at 100 μM ≥50%); three independent experiments; read-out: IC50 ± SEM hAChE
[1] = DPPH radical-scavenging assay; details: read-out: free-radical scavenging potency EC50 ± SEM (concentration that scavenged 50% of the DPPH free radicals); DPPH in MeOH, 90 min, room temperature, dark
Method: Free-radical scavenging potency was evaluated using the DPPH assay. […] The microtiter plate was incubated at room temperature in the dark for 90 min. The absorbance at 517 nm was then determined with a microplate reader (Synergy HT; BioTek Instruments, Inc., VT, USA). The experiments were performed in triplicate, with subtraction of the blank value (compound without DPPH). The percentages of DPPH free radicals were calculated as DPPH free radical (%)=[(A0−A1)/A0]×100, where A0 is the absorbance of the negative control, and A1 is the absorbance of the test sample. […] Resveratrol and Trolox were used as the positive controls under the same assay conditions.

[2] = Metal-chelating properties (UV-Vis spectra, Cu2+ titration, Yoe-Jones method); assay type: physicochemical; details: 30 μM compound; for interception point of Cu2+ titration (Yoe-Jones method): 0-150 μM Cu2+, Cu2+/compound molar ratio; for change in absorption spectra on addition of Fe2+ and Fe3+ / change in absorption spectra with Ca2+ and Mg2+: equimolar metal ion, HEPES buffer pH 7.4
Method: The chelation properties were determined in HEPES buffer (20 mM, 150 mM NaCl, pH 7.4) using a 96-well microplate reader (Synergy HT; BioTek Instruments, Inc., VT, USA). To determine the chelation of the metal ions by the compounds, 30 μM compound solution was treated with equimolar concentrations of CuCl2, ZnCl2, CoCl2, MgCl2, CaCl2, FeCl2, FeCl3, and AlCl3. To prevent oxidation of Fe^2+, the solution of FeCl2 was prepared in the presence of 1 mM ascorbic acid. The absorption spectra were recorded after 30 min incubation at room temperature. The chelation was detected by the change in the absorption spectra, which was specific for each metal ion. The Cu^2+ binding stoichiometry was resolved by titration of a 30 μM buffered solution of the compounds with additions of CuCl2 buffered stock solution. […] The absorbance differences in the absence and presence of Cu^2+ were plotted against the Cu^2+/compound molar ratio.

[3] = Antioxidant capacity against hydroxyl radicals; details: statement in words, no method given
primary cultured neurons = assay: Neuroprotection of primary cultured neurons after experimental ischemia; assay type: cell-based; details: statement in words, no method given
hMAO-B = molecular target: T1, hMAO-B (Homo sapiens, UniProt P27338); assay type: biochemical; details: read-out: IC50 ± SEM hMAO-B
T1 construct: purchased Sigma Aldrich; host or cells: BTI-TN-5B1-4 insect cells
T1 sequence (P27338 1-520): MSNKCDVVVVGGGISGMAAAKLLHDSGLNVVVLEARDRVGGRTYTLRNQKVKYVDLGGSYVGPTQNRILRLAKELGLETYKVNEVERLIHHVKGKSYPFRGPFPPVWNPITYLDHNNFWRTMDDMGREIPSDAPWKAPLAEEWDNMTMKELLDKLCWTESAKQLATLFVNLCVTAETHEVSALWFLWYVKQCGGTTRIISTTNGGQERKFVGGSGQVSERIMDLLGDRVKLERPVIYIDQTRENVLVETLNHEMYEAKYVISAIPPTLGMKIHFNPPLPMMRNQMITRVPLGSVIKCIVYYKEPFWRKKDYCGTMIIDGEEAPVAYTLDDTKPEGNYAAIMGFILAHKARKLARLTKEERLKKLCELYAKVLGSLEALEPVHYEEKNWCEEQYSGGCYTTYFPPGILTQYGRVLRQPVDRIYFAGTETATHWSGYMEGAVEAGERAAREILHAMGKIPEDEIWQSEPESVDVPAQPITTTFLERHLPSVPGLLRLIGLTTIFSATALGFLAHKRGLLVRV

[4] = HEPES buffer pH 7.4, 30 min, room temperature

hBChE, sequence (P06276 29-602): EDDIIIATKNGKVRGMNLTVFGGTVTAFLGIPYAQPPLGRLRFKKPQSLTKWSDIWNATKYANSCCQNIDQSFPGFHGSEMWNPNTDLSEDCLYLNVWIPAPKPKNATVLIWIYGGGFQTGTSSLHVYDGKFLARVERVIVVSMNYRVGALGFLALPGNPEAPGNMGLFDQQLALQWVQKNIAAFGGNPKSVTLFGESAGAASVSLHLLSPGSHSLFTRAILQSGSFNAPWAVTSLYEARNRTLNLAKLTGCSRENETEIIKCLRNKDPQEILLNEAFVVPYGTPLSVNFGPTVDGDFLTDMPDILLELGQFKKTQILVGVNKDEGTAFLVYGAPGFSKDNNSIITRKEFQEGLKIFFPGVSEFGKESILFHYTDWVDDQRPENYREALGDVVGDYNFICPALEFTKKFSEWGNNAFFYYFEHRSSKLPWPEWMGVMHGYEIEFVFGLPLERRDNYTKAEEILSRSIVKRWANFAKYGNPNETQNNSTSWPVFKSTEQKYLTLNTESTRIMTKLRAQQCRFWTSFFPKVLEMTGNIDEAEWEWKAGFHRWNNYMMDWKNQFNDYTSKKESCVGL
hAChE, sequence (P22303 32-614): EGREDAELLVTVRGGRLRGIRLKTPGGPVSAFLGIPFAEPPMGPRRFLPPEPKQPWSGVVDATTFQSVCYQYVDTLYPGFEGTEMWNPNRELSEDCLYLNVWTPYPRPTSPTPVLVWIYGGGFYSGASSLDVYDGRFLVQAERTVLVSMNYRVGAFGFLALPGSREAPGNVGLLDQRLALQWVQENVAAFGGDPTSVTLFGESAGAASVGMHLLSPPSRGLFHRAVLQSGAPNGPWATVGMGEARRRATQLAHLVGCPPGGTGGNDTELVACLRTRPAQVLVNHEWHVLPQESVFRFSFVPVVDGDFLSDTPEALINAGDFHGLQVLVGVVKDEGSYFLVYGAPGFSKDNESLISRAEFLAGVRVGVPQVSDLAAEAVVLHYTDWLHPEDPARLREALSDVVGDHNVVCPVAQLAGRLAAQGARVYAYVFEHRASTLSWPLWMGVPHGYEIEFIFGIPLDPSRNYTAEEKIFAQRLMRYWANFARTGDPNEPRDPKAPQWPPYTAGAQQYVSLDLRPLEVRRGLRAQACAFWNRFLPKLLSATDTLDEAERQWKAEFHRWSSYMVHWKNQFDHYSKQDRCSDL

SMILES: C#CCN1CCN(CCCOc2cccc3ccc(/C=[N+](\[O-])C(C)(C)C)nc23)CC1 [Compound 7, (Z)-N-tert-Butyl-1-(8-(3-(4-(prop-2-yn-1-yl)piperazin-1-yl)propoxy)quinolin-2-yl)methanimine oxide]
- IC50 (hBChE; read-out: IC50 ± SEM hBChE): 0.0073 ± 0.0011 µM

SMILES: [O-]/[N+](=C\c1ccc2cccc(OCCCN3CCCCC3)c2n1)Cc1ccccc1 [Compound 4, (Z)-N-Benzyl-1-(8-(3-(piperidin-1-yl)propoxy)quinolin-2-yl)methanimine oxide]
- IC50 (hBChE): 0.0769 ± 0.0063 µM

SMILES: [O-]/[N+](=C\c1ccc2cccc(O)c2n1)Cc1ccccc1 [Compound 11, (Z)-N-Benzyl-1-(8-hydroxyquinolin-2-yl)methanimine oxide]
- IC50 (hAChE): 0.029 ± 0.003 µM
- IC50 (hBChE): ≤ 0.0011 µM
- EC50 [1]: 126 ± 0.1 µM
- interception point of Cu2+ titration (Yoe-Jones method) [2]: 0.5
- change in absorption spectra on addition of Fe2+ and Fe3+ [2]: hypochromic change in absorbance spectra
- change in absorption spectra with Ca2+ and Mg2+ [2]: no major alterations in spectra
- antioxidant capacity against hydroxyl radicals [3]: striking antioxidant capacity
- neuroprotection of primary cultured neurons after experimental ischemia (primary cultured neurons): remarkable activity for neuroprotection

SMILES: C/[N+]([O-])=C/c1ccc2cccc(O)c2n1 [Compound 9, (Z)-1-(8-Hydroxyquinolin-2-yl)-N-methylmethanimine oxide]
- IC50 (hMAO-B): 10.1 ± 2.5 µM

SMILES: C#CCN1CCN(CCCOc2cccc3ccc(/C=[N+](\[O-])Cc4ccccc4)nc23)CC1 [Compound 8, (Z)-N-Benzyl-1-(8-(3-(4-(prop-2-yn-1-yl)piperazin-1-yl)propoxy)quinolin-2-yl)methanimine oxide]
- IC50 (hBChE): 0.031 ± 0.0064 µM

SMILES: CC(C)(C)/[N+]([O-])=C/c1ccc2cccc(O)c2n1 [Compound 10, (Z)-N-tert-butyl-1-(8-hydroxyquinolin-2-yl)methanimine oxide]
- IC50 (hMAO-B): 16.4 ± 1 µM
- IC50 (hBChE; read-out: IC50 ± SEM hBChE): 0.0051 ± 0.0006 µM
- EC50 [1]: 119 ± 1.2 µM
- interception point of Cu2+ titration (Yoe-Jones method) [2]: 0.5
- new absorption maximum with equimolar Al3+ (bathochromic shift) [2, 4]: 296 nm
- new absorption maximum with equimolar Cu2+ (bathochromic shift) [2, 4]: 310 nm
- new absorption maximum with equimolar Zn2+ (bathochromic shift) [2, 4]: 309 nm
- change in absorption spectra on addition of Fe2+ and Fe3+ [2]: hyperchromic shift
- change in absorption spectra with Ca2+ and Mg2+ [2]: no major changes in absorption spectra

SMILES: CC(C)(C)/[N+]([O-])=C/c1ccc2cccc(OCCCN3CCCCC3)c2n1 [Compound 3, (Z)-N-tert-Butyl-1-(8-(3-(piperidin-1-yl)propoxy)quinolin-2-yl)methanimine oxide]
- IC50 (hBChE; read-out: IC50 ± SEM hBChE): 0.0254 ± 0.0021 µM
